Data as given in ChEMBL document CHEMBL1149093, “Design and synthesis of new templates derived from pyrrolopyrimidine as selective multidrug-resistance-associated protein inhibitors in multidrug resistance” (J Med Chem, 2004).

What was measured:
in vivo [1] = conditions: mouse, plasma, iv, 20 mg/kg
in vivo [2] = conditions: mouse, iv, 20 mg/kg
in vivo [3] = conditions: mouse, iv, 20 mg/kg; remark: listed apart in the source
in vivo [4] = conditions: mouse, ip, 50 mg/kg
in vivo [5] = conditions: mouse, ip, 50 mg/kg; remark: listed apart in the source
in vivo [6] = conditions: mouse, plasma, ip, 50 mg/kg

Row | SMILES | Cmax (in vivo [1]) [µM] | half-life (in vivo [2]) [h] | AUC (in vivo [3]) [ng·h/mL] | half-life (in vivo [4]) [h] | AUC (in vivo [5]) [ng·h/mL] | Cmax (in vivo [6]) [µM]
1 | Cn1c2cccc(C(N)=O)c2c2nc(CN3CCOCC3)nc(N3CCN(CCc4ccc(F)c(F)c4)CC3)c21 | 15 | 3.03 | 14000 |  |  | 
2 | Cn1c2ccnc(N3CCOCC3)c2c2ncnc(N3CCN(CCc4ccc(F)c(F)c4)CC3)c21 | 11.9 | 1.97 | 6320 |  |  | 
3 | O=[N+]([O-])c1cc([N+](=O)[O-])c2[nH]c3c(N4CCN(CCc5ccc(F)c(F)c5)CC4)nc(CN4CCOCC4)nc3c2c1 | 9 | 2.4 | 5100 | 6.86 | 30600 | 26.4
